According to patent US8822467B2 (Ligand Pharmaceuticals Inc., priority 2009, dated 2014):

target: T1, human CRTH2 (Homo sapiens, UniProt Q9Y5Y4); test: [35S]GTPγS binding assay (SPA) on membranes from CHO-K1 cells stably expressing human CRTH2, stimulated with 60 nM DHK-PGD2; type: biochemical; conditions: membranes of CHO-K1 cells expressing human CRTH2; 60 nM DHK-PGD2; Table 1; read-out: CRTH2 hGTPγS IC50
T1 construct: expressed in transfected cells
T1 sequence (Q9Y5Y4 1-395): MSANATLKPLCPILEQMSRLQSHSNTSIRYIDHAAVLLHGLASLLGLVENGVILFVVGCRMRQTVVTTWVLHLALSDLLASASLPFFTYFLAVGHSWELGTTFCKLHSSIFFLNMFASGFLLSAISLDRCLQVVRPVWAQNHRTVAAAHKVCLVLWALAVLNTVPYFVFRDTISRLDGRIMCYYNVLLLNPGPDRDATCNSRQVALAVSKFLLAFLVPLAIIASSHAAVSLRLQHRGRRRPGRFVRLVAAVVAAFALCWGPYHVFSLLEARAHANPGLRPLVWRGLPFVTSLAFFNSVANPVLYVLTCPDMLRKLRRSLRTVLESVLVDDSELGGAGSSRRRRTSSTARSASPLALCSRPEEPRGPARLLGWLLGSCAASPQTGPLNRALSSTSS
Protocol: [^35S]GTPγS Binding Assay
SPA [^35S]G-TPγS binding was performed on membranes from CHO-K1 cells stably expressing human CRTH2. To a white, clear-bottomed 384-well plate, 4 μg membrane protein was incubated in the binding buffer (20 mM HEPES, pH 7.4, 10 mM MgCl2, 300 mM NaCl, 0.2% BSA) with 60 nM DHK-PGD2, 500 pM [^35S]GTPγS, 10 μM GDP, and 100 μg wheat germ agglutinin-coupled SPA beads (GE Healthcare) with and without increasing concentrations of compounds. The final assay volume was 40 μL and contained 1% DMSO. Samples were incubated for 2 h at ambient temperature. Plates were centrifuged 5 min at 1500 rpm. Plates were read after an additional 4 h using the Trilux 1450 Microbeta (PerkinElmer) with a 30 sec/well reading time.

SMILES	IC50
CN(Cc1ccc(OCC(=O)O)c(-c2cccc(C#N)c2)c1)S(=O)(=O)c1cc(F)cc(F)c1 [Example 97, 2-(3-cyanophenyl)-4-((3,5-difluoro-N-methylphenylsulfonamido)methyl)phenoxyacetic acid]	43 nM
O=C(O)COc1ccc(CNS(=O)(=O)c2ccc(F)cc2)cc1-c1cccc(C(F)(F)F)c1 [Example 110]	169 nM

same assay, conditions: potency class symbols; Table 2; read-out: CRTH2 hGTPγS IC50

SMILES	IC50
CN(Cc1ccc(OCC(=O)O)c(-c2cccc(C(F)(F)F)c2)c1)S(=O)(=O)c1ccc(F)c(F)c1 [Example 91, 2-(3-trifluoromethylphenyl)-4-((3,4-difluoro-N-methylphenylsulfonamido)methyl)phenoxyacetic acid]	< 100 nM
Cc1ccc(S(=O)(=O)N(C)Cc2ccc(OCC(=O)O)c(-c3cccc(C#N)c3)c2)cc1F [Example 92, 2-(3-cyanophenyl)-4-((3-fluoro-4-methyl-N-methylphenylsulfonamido)methyl)phenoxyacetic acid]	< 100 nM
CC(c1ccc(OCC(=O)O)c(-c2cccc(C(F)(F)F)c2)c1)N(C)S(=O)(=O)c1ccc(F)c(F)c1 (centres unmarked) [Example 93, 2-(3-trifluoromethylphenyl)-4-(1-(3,4-difluoro-N-methylphenylsulfonamido)ethyl)phenoxyacetic acid]	< 100 nM
CN(Cc1ccc(OCC(=O)O)c(-c2cccc(S(C)(=O)=O)c2)c1)S(=O)(=O)c1ccccc1F [Example 94, 2-(3-methylsulfonylphenyl)-4-((2-fluoro-N-methylphenylsulfonamido)methyl)phenoxyacetic acid]	< 100 nM
CN(Cc1ccc(OCC(=O)O)c(-c2cccc(C(F)(F)F)c2)c1)S(=O)(=O)c1ccc(F)cc1 [Example 95, 2-(3-trifluoromethylphenyl)-4-((4-fluoro-N-methylphenylsulfonamido)methyl)phenoxyacetic acid]	< 100 nM
COc1cc(F)cc(-c2cc(CN(C)S(=O)(=O)c3ccc(F)cc3)ccc2OCC(=O)O)c1 [Example 96, 2-(3-methoxy-5-fluorophenyl)-4-((4-fluoro-N-methylphenylsulfonamido)methyl)phenoxyacetic acid]	< 100 nM
CN(Cc1ccc(OCC(=O)O)c(-c2cccc(C#N)c2)c1)S(=O)(=O)c1cc(F)cc(F)c1 [Example 97, 2-(3-cyanophenyl)-4-((3,5-difluoro-N-methylphenylsulfonamido)methyl)phenoxyacetic acid]	< 100 nM
CN(Cc1cc(-c2cccc(C#N)c2)c(OCC(=O)O)cc1F)S(=O)(=O)c1ccccc1 [Example 98, 2-(3-cyanophenyl)-4-((N-methylphenylsulfonamido)methyl)-5-fluorophenoxyacetic acid]	< 100 nM
CN(Cc1ccc(OCC(=O)O)c(-c2cccc(C#N)c2)c1)S(=O)(=O)c1cc(F)cc(Cl)c1 [Example 99, 2-(3-cyanophenyl)-4-((3-chloro-5-fluoro-N-methylphenylsulfonamido)methyl)phenoxyacetic acid]	< 100 nM
CC(C)Oc1cc(F)cc(-c2cc(CN(C)S(=O)(=O)c3ccc(F)cc3)ccc2OCC(=O)O)c1 [Example 100, 2-(3-isopropoxy-5-fluorophenyl)-4-((4-fluoro-N-methylphenylsulfonamido)methyl)phenoxyacetic acid]	< 100 nM
CN(Cc1ccc(OCC(=O)O)c(-c2ccc3ccn(C)c3c2)c1)S(=O)(=O)c1ccc(F)cc1 [Example 101, 2-(1-methyl-indol-6-yl)-4-((4-fluoro-N-methylphenylsulfonamido)methyl)phenoxyacetic acid]	< 100 nM
CN(Cc1ccc(OCC(=O)O)c(-c2cccc(C#N)c2)c1)S(=O)(=O)c1cccc(C(F)(F)F)c1 [Example 102, 2-(3-cyanophenyl)-4-((3-trifluoromethyl-N-methylphenylsulfonamido)methyl)phenoxyacetic acid]	100 to 1000 nM
COc1cc(S(=O)(=O)N(C)Cc2ccc(OCC(=O)O)c(-c3cccc(C#N)c3)c2)ccc1F [Example 103, 2-(3-cyanophenyl)-4-((3-methoxy-4-fluoro-N-methylphenylsulfonamido)methyl)phenoxyacetic acid]	100 to 1000 nM
COc1ccc(S(=O)(=O)N(C)Cc2ccc(OCC(=O)O)c(-c3cccc(C#N)c3)c2)cc1 [Example 104, 2-(3-cyanophenyl)-4-((4-methoxy-N-methylphenylsulfonamido)methyl)phenoxyacetic acid]	100 to 1000 nM
CN(Cc1ccc(OCC(=O)O)c(-c2cccc(C(N)=O)c2)c1)S(=O)(=O)c1ccc(F)cc1 [Example 105, 2-(3-aminocarbonylphenyl)-4-((4-fluoro-N-methylphenylsulfonamido)methyl)phenoxyacetic acid]	100 to 1000 nM
CN(Cc1ccc(OCC(=O)O)c(-c2cc(F)cc(F)c2)c1)S(=O)(=O)c1ccc(F)cc1 [Example 106, 2-(3,5-difluorophenyl)-4-((4-fluoro-N-methylphenylsulfonamido)methyl)phenoxyacetic acid]	100 to 1000 nM
CN(Cc1ccc(OCC(=O)O)c(-c2cccc(C(F)(F)F)c2)c1)S(=O)(=O)c1ccc(F)cc1F [Example 107, 2-(3-trifluoromethylphenyl)-4-((2,4-difluoro-N-methylphenylsulfonamido)methyl)phenoxyacetic acid]	100 to 1000 nM
CN(Cc1ccc(OCC(=O)O)c(-c2cncc(C#N)c2)c1)S(=O)(=O)c1ccc(F)cc1 [Example 108, 2-(3-cyano-5-pyridinyl)-4-((4-fluoro-N-methylphenylsulfonamido)methyl)phenoxyacetic acid]	100 to 1000 nM
Cc1ccc(S(=O)(=O)N(C)Cc2ccc(OCC(=O)O)c(-c3cccc(C#N)c3)c2)cc1 [Example 109, 2-(3-cyanophenyl)-4-((4-methyl-N-methylphenylsulfonamido)methyl)phenoxyacetic acid]	100 to 1000 nM
O=C(O)COc1ccc(CNS(=O)(=O)c2ccc(F)cc2)cc1-c1cccc(C(F)(F)F)c1 [Example 110]	100 to 1000 nM
CN(Cc1ccc(OCC(=O)O)c(-c2cccc(C(F)(F)F)c2)c1)S(=O)(=O)c1cccc(Cl)c1 [Example 111, 2-(3-trifluoromethylphenyl)-4-((3-chloro-N-methylphenylsulfonamido)methyl)phenoxyacetic acid]	100 to 1000 nM
CCOc1cc(F)cc(-c2cc(CN(C)S(=O)(=O)c3ccc(F)cc3)ccc2OCC(=O)O)c1 [Example 112, 2-(3-ethoxy-5-fluorophenyl)-4-((4-fluoro-N-methylphenylsulfonamido)methyl)phenoxyacetic acid]	100 to 1000 nM
CCN(Cc1ccc(OCC(=O)O)c(-c2cccc(C(F)(F)F)c2)c1)S(=O)(=O)c1ccc(F)c(F)c1 [Example 113, 2-(3-trifluoromethylphenyl)-4-((3,4-difluoro-N-ethylphenylsulfonamido)methyl)phenoxyacetic acid]	100 to 1000 nM
COCc1cccc(-c2cc(CN(C)S(=O)(=O)c3ccc(F)cc3)ccc2OCC(=O)O)c1 [Example 114, 2-(3-methoxymethylphenyl)-4-((4-fluoro-N-methylphenylsulfonamido)methyl)phenoxyacetic acid]	100 to 1000 nM
CN(Cc1ccc(OCC(=O)O)c(-c2cc(C(F)(F)F)ccc2Cl)c1)S(=O)(=O)c1ccc(F)cc1 [Example 115, 2-(2-chloro-5-trifluoromethylphenyl)-4-((4-fluoro-N-methylphenylsulfonamido)methyl)phenoxyacetic acid]	100 to 1000 nM
CN(Cc1ccc(OCC(=O)O)c(-c2cccc(C(F)(F)F)c2)c1)S(=O)(=O)c1ccc(Cl)cc1 [Example 116, 2-(3-trifluoromethylphenyl)-4-((4-chloro-N-methylphenylsulfonamido)methyl)phenoxyacetic acid]	100 to 1000 nM
CC(C)c1cccc(-c2cc(CN(C)S(=O)(=O)c3ccc(F)cc3)ccc2OCC(=O)O)c1 [Example 117, 2-(3-isopropylphenyl)-4-((4-fluoro-N-methylphenylsulfonamido)methyl)phenoxyacetic acid]	100 to 1000 nM
